Measurements as given in US20240132484A1, “BROAD SPECTRUM ANTIVIRAL COMPOUNDS TARGETING THE SKI COMPLEX” (priority 2020, published 2024).
“And” between values parts separate entries of the source, which are not always exact repeats. Identical values can stand only once. “Also recorded” adds a separate entry of the source. Like-named read-outs stand apart in the source and are kept apart here.

Key:
SARS2 = type: cell-based, SARS-CoV-2; settings: for Infection Data, Average, Mean percentage infection relative to DMSO control: Average of Exp 1 (SMW491) and Exp 2 (SMW492); for Infection Data, Percentage Infection Relative to Appropriate DMSO Control: single well; for Infection Data, Percentage Infection Relative to Appropriate DMSO Control / Percentage Infection Relative to Appropriate DMSO Control: avg background subtraction; for Percentage Inhibition Average 1 μM / Screening data (Relative infection to DMSO controls) Average 1 μM: SARS2, 1 μM; for Screening data (Relative infection to DMSO controls) Average 1 μM / Screening data (Relative infection to DMSO controls) Average 5 μM / Screening data (Relative infection to DMSO controls) Average 10 μM / Screening data (Relative infection to DMSO controls) Average 25 μM / Screening data (Relative infection to DMSO controls) Average 50 μM / Average (relative infection to DMSO over the 5 tested concentrations): 100=DMSO control; for Percentage Inhibition Average 5 μM / Screening data (Relative infection to DMSO controls) Average 5 μM: SARS2, 5 μM; for Percentage Inhibition Average 10 μM / Screening data (Relative infection to DMSO controls) Average 10 μM: SARS2, 10 μM; for Percentage Inhibition Average 25 μM / Screening data (Relative infection to DMSO controls) Average 25 μM: SARS2, 25 μM; for Percentage Inhibition Average 50 μM / Screening data (Relative infection to DMSO controls) Average 50 μM: SARS2, 50 μM; for Average (relative infection to DMSO over the 5 tested concentrations): SARS2, average over 1 to 50 uM
cells (nuclei count) = settings: for Relative cell count to DMSO controls, Average 1 μM / Relative cell count to DMSO controls, Average 5 μM / Relative cell count to DMSO controls, Average 10 μM / Relative cell count to DMSO controls, Average 25 μM / Relative cell count to DMSO controls, Average 50 μM: toxicity data, 100=DMSO control; for Toxicity Data, Average, Mean percentage relative to DMSO control: Average of Exp 1 (SMW491) and Exp 2 (SMW492); for Toxicity Data, Percentage Relative to Appropriate DMSO Control: single well; for Relative cell count to DMSO controls, Average (for correlation analysis): average value over the 5 tested concentrations (1 to 50 uM)

## COc1ccc(CNCCc2ccccc2F)c(OCC(O)CN2CCCC2)c1 (racemic) [SILCS43]
SARS2
  SARS2 antiviral activity: highest activity to date; also recorded: most potent
  potency relative to UMB18 (more potent): 3-4
  Percentage Inhibition Average 1 μM: 81.79%
  Screening data (Relative infection to DMSO controls) Average 1 μM: 18.21
  Percentage Inhibition Average 5 μM: 93.50%
  Screening data (Relative infection to DMSO controls) Average 5 μM: 6.50
  Percentage Inhibition Average 10 μM: 99.15%
  Screening data (Relative infection to DMSO controls) Average 10 μM: 0.85
  Percentage Inhibition Average 25 μM: 93.88%
  Screening data (Relative infection to DMSO controls) Average 25 μM: 6.12
  Percentage Inhibition Average 50 μM: 113.34%
  Screening data (Relative infection to DMSO controls) Average 50 μM: −13.34
  Average (relative infection to DMSO over the 5 tested concentrations): 3.67
SARS2; n=4, 1 uM
  Infection Data, Average, Mean percentage infection relative to DMSO control: 18.21%
SARS2; n=4, 5 uM
  Infection Data, Average, Mean percentage infection relative to DMSO control: 6.50%
SARS2; n=4, 10 uM
  Infection Data, Average, Mean percentage infection relative to DMSO control: 0.85%
SARS2; n=4, 25 uM
  Infection Data, Average, Mean percentage infection relative to DMSO control: 6.12%
SARS2; n=4, 50 uM
  Infection Data, Average, Mean percentage infection relative to DMSO control: −13.34%
SARS2; Exp 1 (SMW491), 1 uM
  Infection Data, Percentage Infection Relative to Appropriate DMSO Control: 11.14% and 9.36%
SARS2; Exp 1 (SMW491), 5 uM
  Infection Data, Percentage Infection Relative to Appropriate DMSO Control: 5.93% and 4.01%
SARS2; Exp 1 (SMW491), 10 uM
  Infection Data, Percentage Infection Relative to Appropriate DMSO Control: 0.28% and −0.66%
SARS2; Exp 1 (SMW491), 25 uM
  Infection Data, Percentage Infection Relative to Appropriate DMSO Control: 1.98% and −0.83%
SARS2; Exp 1 (SMW491), 50 uM
  Infection Data, Percentage Infection Relative to Appropriate DMSO Control: −10.07%
SARS2; Exp 2 (SMW492), 1 uM
  Infection Data, Percentage Infection Relative to Appropriate DMSO Control: 18.42% and 33.91%
SARS2; Exp 2 (SMW492), 10 uM
  Infection Data, Percentage Infection Relative to Appropriate DMSO Control: 1.81% and 1.99%
SARS2; Exp 2 (SMW492), 50 uM
  Infection Data, Percentage Infection Relative to Appropriate DMSO Control: −16.61%
SARS2; racemic mixture
  apparent IC50: high nanomolar range
Cells (nuclei count)
  Relative cell count to DMSO controls, Average 1 μM: 154.73
  Relative cell count to DMSO controls, Average 5 μM: 151.78
  Relative cell count to DMSO controls, Average 10 μM: 132.39
  Relative cell count to DMSO controls, Average 25 μM: 136.27
  Relative cell count to DMSO controls, Average 50 μM: 0.01
  Relative cell count to DMSO controls, Average (for correlation analysis): 115.04
Cells (nuclei count); n=4, 1 uM
  Toxicity Data, Average, Mean percentage relative to DMSO control: 154.73%
Cells (nuclei count); n=4, 5 uM
  Toxicity Data, Average, Mean percentage relative to DMSO control: 151.78%
Cells (nuclei count); n=4, 10 uM
  Toxicity Data, Average, Mean percentage relative to DMSO control: 132.39%
Cells (nuclei count); n=4, 25 uM
  Toxicity Data, Average, Mean percentage relative to DMSO control: 136.27%
Cells (nuclei count); n=4, 50 uM
  Toxicity Data, Average, Mean percentage relative to DMSO control: 0.01%
Cells (nuclei count); Exp 1 (SMW491), 1 uM
  Toxicity Data, Percentage Relative to Appropriate DMSO Control: 151% and 166%
Cells (nuclei count); Exp 1 (SMW491), 5 uM
  Toxicity Data, Percentage Relative to Appropriate DMSO Control: 130% and 166%
Cells (nuclei count); Exp 1 (SMW491), 10 uM
  Toxicity Data, Percentage Relative to Appropriate DMSO Control: 118% and 121%
Cells (nuclei count); Exp 1 (SMW491), 25 uM
  Toxicity Data, Percentage Relative to Appropriate DMSO Control: 121% and 136%
Cells (nuclei count); Exp 1 (SMW491), 50 uM
  Toxicity Data, Percentage Relative to Appropriate DMSO Control: 0%
Cells (nuclei count); Exp 2 (SMW492), 1 uM
  Toxicity Data, Percentage Relative to Appropriate DMSO Control: 156% and 145%
Cells (nuclei count); Exp 2 (SMW492), 5 uM
  Toxicity Data, Percentage Relative to Appropriate DMSO Control: 155% and 156%
Cells (nuclei count); Exp 2 (SMW492), 10 uM
  Toxicity Data, Percentage Relative to Appropriate DMSO Control: 145% and 146%
Cells (nuclei count); Exp 2 (SMW492), 25 uM
  Toxicity Data, Percentage Relative to Appropriate DMSO Control: 143% and 145%
Cells (nuclei count); Exp 2 (SMW492), 50 uM
  Toxicity Data, Percentage Relative to Appropriate DMSO Control: 0%

## Cc1ccc(CN(CCN(C)C)Cc2cc(C#CCO)cs2)s1 [SILCS1]
SARS2; 1 uM, Exp 1 (SMW454), single wells
  Percentage Infection Relative to Appropriate DMSO Control: 99.35% and 98.10% and 99.72%
SARS2; 5 uM, Exp 1 (SMW454), single wells
  Percentage Infection Relative to Appropriate DMSO Control: 112.30% and 117.54% and 117.35%
SARS2; 10 uM, Exp 1 (SMW454), single wells
  Percentage Infection Relative to Appropriate DMSO Control: 107.68% and 118.84% and 98.07%
SARS2; 25 uM, Exp 1 (SMW454), single wells
  Percentage Infection Relative to Appropriate DMSO Control: 103.38% and 104.01% and 105.61%
SARS2; 50 uM, Exp 1 (SMW454), single wells
  Percentage Infection Relative to Appropriate DMSO Control: 103.48% and 93.04% and 95.93%
SARS2; Average of Exp 1-3, n 9, 1 uM
  Infection Data, Average, Mean: 122.42%
SARS2; Average of Exp 1-3, n 9, 5 uM
  Infection Data, Average, Mean: 119.79%
SARS2; Average of Exp 1-3, n 9, 10 uM
  Infection Data, Average, Mean: 100.52%
SARS2; Average of Exp 1-3, n 9, 25 uM
  Infection Data, Average, Mean: 61.83%
SARS2; Average of Exp 1-3, n 9, 50 uM
  Infection Data, Average, Mean: 43.32%
SARS2; Exp 2 (SMW466), 1 uM
  Percentage Infection Relative to Appropriate DMSO Control: 148.68% and 144.39% and 143.85%
SARS2; Exp 2 (SMW466), 5 uM
  Percentage Infection Relative to Appropriate DMSO Control: 114.43% and 126.13% and 128.85%
SARS2; Exp 2 (SMW466), 10 uM
  Percentage Infection Relative to Appropriate DMSO Control: 102.74% and 102.52% and 110.68%
SARS2; Exp 2 (SMW466), 25 uM
  Percentage Infection Relative to Appropriate DMSO Control: 28.51% and 36.47% and 30.25%
SARS2; Exp 3 (SMW480), 1 uM
  Percentage Infection Relative to Appropriate DMSO Control: 128.15% and 110.09% and 129.44%
SARS2; Exp 3 (SMW480), 5 uM
  Percentage Infection Relative to Appropriate DMSO Control: 127.64% and 114.03% and 119.89%
SARS2; Exp 3 (SMW480), 10 uM
  Percentage Infection Relative to Appropriate DMSO Control: 73.36% and 110.69% and 80.10%
SARS2; Exp 3 (SMW480), 25 uM
  Percentage Infection Relative to Appropriate DMSO Control: 55.94% and 38.83% and 53.44%
SARS2; Exp 3 (SMW480), 50 uM
  Percentage Infection Relative to Appropriate DMSO Control: 27.26% and 20.30% and 23.61%
SARS2
  Percentage Inhibition Average 1 μM: −22.42%
  Screening data (Relative infection to DMSO controls) Average 1 μM: 122.42
  Percentage Inhibition Average 5 μM: −19.79%
  Screening data (Relative infection to DMSO controls) Average 5 μM: 119.79
  Percentage Inhibition Average 10 μM: −0.52%
  Screening data (Relative infection to DMSO controls) Average 10 μM: 100.52
  Percentage Inhibition Average 25 μM: 38.17%
  Screening data (Relative infection to DMSO controls) Average 25 μM: 61.83
  Percentage Inhibition Average 50 μM: 56.68%
  Screening data (Relative infection to DMSO controls) Average 50 μM: 43.32
  Average (relative infection to DMSO over the 5 tested concentrations): 89.58
Cells (nuclei count)
  Relative cell count to DMSO controls, Average 1 μM: 98.82
  Relative cell count to DMSO controls, Average 5 μM: 99.54
  Relative cell count to DMSO controls, Average 10 μM: 108.52
  Relative cell count to DMSO controls, Average 25 μM: 116.28
  Relative cell count to DMSO controls, Average 50 μM: 84.14
  Relative cell count to DMSO controls, Average (for correlation analysis): 101.46
Cells (nuclei count); Average of Exp 1-3, n 9, 1 uM
  Toxicity Data, Average, Mean: 98.82%
Cells (nuclei count); Average of Exp 1-3, n 9, 5 uM
  Toxicity Data, Average, Mean: 99.54%
Cells (nuclei count); Average of Exp 1-3, n 9, 10 uM
  Toxicity Data, Average, Mean: 108.52%
Cells (nuclei count); Average of Exp 1-3, n 9, 25 uM
  Toxicity Data, Average, Mean: 116.28%
Cells (nuclei count); Average of Exp 1-3, n 9, 50 uM
  Toxicity Data, Average, Mean: 84.14%
Cells (nuclei count); Exp 1 (SMW454), 1 uM
  Toxicity Data, nuclei count relative to DMSO controls: 105.2% and 108.8% and 106.3%
Cells (nuclei count); Exp 1 (SMW454), 5 uM
  Toxicity Data, nuclei count relative to DMSO controls: 102.9% and 104.5% and 102.2%
Cells (nuclei count); Exp 1 (SMW454), 10 uM
  Toxicity Data, nuclei count relative to DMSO controls: 107.4% and 106.9% and 105.6%
Cells (nuclei count); Exp 1 (SMW454), 25 uM
  Toxicity Data, nuclei count relative to DMSO controls: 94.7% and 94.9% and 95.9%
Cells (nuclei count); Exp 1 (SMW454), 50 uM
  Toxicity Data, nuclei count relative to DMSO controls: 83.8% and 87.1% and 84.9%
Cells (nuclei count); Exp 2 (SMW466), 1 uM
  Toxicity Data, nuclei count relative to DMSO controls: 93.5% and 94.5% and 96.6%
Cells (nuclei count); Exp 2 (SMW466), 5 uM
  Toxicity Data, nuclei count relative to DMSO controls: 107.1% and 94.1% and 106.7%
Cells (nuclei count); Exp 2 (SMW466), 10 uM
  Toxicity Data, nuclei count relative to DMSO controls: 107.3% and 102.2% and 104.0%
Cells (nuclei count); Exp 2 (SMW466), 25 uM
  Toxicity Data, nuclei count relative to DMSO controls: 130.6% and 124.7% and 133.0%
Cells (nuclei count); Exp 2 (SMW466), 50 uM
  Toxicity Data, nuclei count relative to DMSO controls: 88.5% and 77.1% and 78.5%
Cells (nuclei count); Exp 3 (SMW480), 1 uM
  Toxicity Data, nuclei count relative to DMSO controls: 89.7% and 102.3% and 92.4%
Cells (nuclei count); Exp 3 (SMW480), 5 uM
  Toxicity Data, nuclei count relative to DMSO controls: 88.1% and 95.7% and 94.5%
Cells (nuclei count); Exp 3 (SMW480), 10 uM
  Toxicity Data, nuclei count relative to DMSO controls: 124.6% and 98.4% and 120.2%
Cells (nuclei count); Exp 3 (SMW480), 25 uM
  Toxicity Data, nuclei count relative to DMSO controls: 120.8% and 130.3% and 121.5%
Cells (nuclei count); Exp 3 (SMW480), 50 uM
  Toxicity Data, nuclei count relative to DMSO controls: 72.1% and 98.8% and 86.4%
